Among the data in patent US8501786B2, “Hydroxymethyl pyrrolidines as beta 3 adrenergic receptor agonists” (Merck Sharp & Dohme Corp., priority 2009, dated 2013) are EC50, bladder capacity and bladder pressure values, retold here.

Where a name gives a salt, the structure may show the parent alone.

The target in one assay is T1, human β3 adrenergic receptor (Homo sapiens, UniProt P13945).
T1 construct: stably transfected with the cloned β-adrenergic receptor (β1, β2 or β3); expressed in transfected cells; host or cells: Chinese hamster ovary (CHO) cells, stably transfected
T1 sequence (P13945 whole entry): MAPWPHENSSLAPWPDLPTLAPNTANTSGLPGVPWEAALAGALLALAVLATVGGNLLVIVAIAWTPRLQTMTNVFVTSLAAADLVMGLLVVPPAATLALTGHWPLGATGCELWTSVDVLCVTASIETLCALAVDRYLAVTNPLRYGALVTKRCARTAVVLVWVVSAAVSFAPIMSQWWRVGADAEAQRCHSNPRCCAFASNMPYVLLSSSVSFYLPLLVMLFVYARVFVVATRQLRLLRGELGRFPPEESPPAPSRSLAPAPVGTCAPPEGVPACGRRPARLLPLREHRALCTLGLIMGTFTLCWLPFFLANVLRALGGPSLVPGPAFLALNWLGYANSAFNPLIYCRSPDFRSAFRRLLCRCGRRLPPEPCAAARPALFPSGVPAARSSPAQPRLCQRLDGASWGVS
Nature of the assay: Functional assay: cAMP production (LANCE TR-FRET) in CHO cells stably transfected with cloned β3 adrenergic receptor. The note with it: Table 4; cAMP production, CHO cells expressing human β3 AR; read-out: Human β3 functional. It counts as cell-based.
Take `O=S(=O)(Cc1ccccn1)Nc1ccc(CC2CC[C@H]([C@H](O)c3cccnc3)N2)cc1` (some centres unmarked) [Example 226]: the EC50 lay in the range of 101 to 1000 nM. The same measure, in the same setting: the value for `O=S(=O)(Nc1ccc(CC2CC[C@H]([C@H](O)c3cccnc3)N2)cc1)c1ccc(-n2cccn2)cc1` (some centres unmarked) [Example 227] was 11 to 100 nM; that for `O=S(=O)(Nc1ccc(CC2CC[C@H]([C@H](O)c3cccnc3)N2)cc1)c1ccc2cnccc2c1` (some centres unmarked) [Example 228] was 101 to 1000 nM.

In the case of `O=S(=O)(Nc1ccc(CC2CC[C@H]([C@H](O)c3cccnc3)N2)cc1)c1cccc2cccnc12` (some centres unmarked) [Example 229], the EC50 lay in the range of 101 to 1000 nM. Regarding `O=S(=O)(Nc1ccc(CC2CC[C@H]([C@H](O)c3cccnc3)N2)cc1)c1cccc2cnccc12` (some centres unmarked) [Example 230], the EC50 lay in the range of 101 to 1000 nM.

Turning to `O=S(=O)(Nc1ccc(CC2CC[C@H]([C@H](O)c3cccnc3)N2)cc1)c1ccc2ncsc2c1` (some centres unmarked) [Example 231], the EC50 was 101 to 1000 nM. In the case of `O=S(=O)(Nc1ccc(CC2CC[C@H]([C@H](O)c3cccnc3)N2)cc1)c1ccc(-c2cnco2)cc1` (some centres unmarked) [Example 232], the EC50 was in the range of 11 to 100 nM. `O=C(N1CCc2ccc(S(=O)(=O)Nc3ccc(CC4CC[C@H]([C@H](O)c5cccnc5)N4)cc3)cc2C1)C(F)(F)F` (some centres unmarked) [Example 233]: the EC50 lay in the range of 101 to 1000 nM. The same measure, in the same setting: with `O=c1ccc2cc(S(=O)(=O)Nc3ccc(CC4CC[C@H]([C@H](O)c5cccnc5)N4)cc3)ccc2o1` (some centres unmarked) [Example 234] the figure was 101 to 1000 nM; with `N#Cc1ccccc1S(=O)(=O)Nc1ccc(CC2CC[C@H]([C@H](O)c3cccnc3)N2)cc1` (some centres unmarked) [Example 235], 101 to 1000 nM.

Regarding `N#Cc1cccc(S(=O)(=O)Nc2ccc(CC3CC[C@H]([C@H](O)c4cccnc4)N3)cc2)c1` (some centres unmarked) [Example 236], the EC50 is 101 to 1000 nM. Take `N#Cc1ccc(S(=O)(=O)Nc2ccc(CC3CC[C@H]([C@H](O)c4cccnc4)N3)cc2)cc1` (some centres unmarked) [Example 237]: the EC50 lay in the range of 101 to 1000 nM.

`O=S(=O)(Nc1ccc(CC2CC[C@H]([C@H](O)c3cccnc3)N2)cc1)c1ccccc1I` (some centres unmarked) [Example 238]: the EC50 was in the range of 101 to 1000 nM.

The same assay, now with this note: Table 5; human β3 functional activity given as ranges; read-out: Human β3 functional.
Regarding `Nc1nc(CC(=O)Nc2ccc(CC3CC[C@H]([C@H](O)c4cccnc4)N3)cc2Br)cs1` (some centres unmarked) [Example 242], the EC50 was 101 to 1000 nM.

The same assay, now with this note: Table 6; human β3 functional activity given as ranges; read-out: Human β3 functional.
Turning to `CC(C(=O)Nc1ccc(C[C@@H]2CC[C@H]([C@H](O)c3cccnc3)N2)cc1)N(C)C(=O)c1ccccn1` (some centres unmarked) [Example 247], the EC50 lay within 101 to 1000 nM. Same read-out and setting: with `CC(C(=O)Nc1ccc(C[C@@H]2CC[C@H]([C@H](O)c3cccnc3)N2)cc1)N(C)C(=O)c1ccccc1F` (some centres unmarked) [Example 248] the figure was 11 to 100 nM. Regarding `CC(=O)NC(C)C(=O)Nc1ccc(C[C@@H]2CC[C@H]([C@H](O)c3cccnc3)N2)cc1` (some centres unmarked) [Example 249], the EC50 lay in the range of 11 to 100 nM. For `CC(NC(=O)c1c(F)cccc1F)C(=O)Nc1ccc(C[C@@H]2CC[C@H]([C@H](O)c3cccnc3)N2)cc1` (some centres unmarked) [Example 250], the EC50 was less than 1 nM.

As for `CC(NC(=O)c1cscn1)C(=O)Nc1ccc(C[C@@H]2CC[C@H]([C@H](O)c3cccnc3)N2)cc1` (some centres unmarked) [Example 251], the EC50 was 1 to 10 nM. With `CC(NC(=O)c1nc[nH]n1)C(=O)Nc1ccc(C[C@@H]2CC[C@H]([C@H](O)c3cccnc3)N2)cc1` (some centres unmarked) [Example 252], the EC50 lay within 1 to 10 nM. The same measure, in the same setting: with `CC(NC(=O)c1cnccn1)C(=O)Nc1ccc(C[C@@H]2CC[C@H]([C@H](O)c3cccnc3)N2)cc1` (some centres unmarked) [Example 253] the figure was 11 to 100 nM; with `CC(N)C(=O)Nc1ccc(C[C@@H]2CC[C@H]([C@H](O)c3cccnc3)N2)cc1` (some centres unmarked) [Example 254], 11 to 100 nM; with `CC(NC(=O)c1cccc(F)c1F)C(=O)Nc1ccc(C[C@@H]2CC[C@H]([C@H](O)c3cccnc3)N2)cc1` (some centres unmarked) [Example 255], less than 1 nM.

For the compound `CC(NS(=O)(=O)c1ccccc1F)C(=O)Nc1ccc(C[C@@H]2CC[C@H]([C@H](O)c3cccnc3)N2)cc1` (some centres unmarked) [Example 256], the EC50 lay within 11 to 100 nM.

Turning to `CC(NS(=O)(=O)c1ccccc1)C(=O)Nc1ccc(C[C@@H]2CC[C@H]([C@H](O)c3cccnc3)N2)cc1` (some centres unmarked) [Example 257], the EC50 lay in the range of 11 to 100 nM. For `CC(NS(=O)(=O)Cc1ccccc1)C(=O)Nc1ccc(C[C@@H]2CC[C@H]([C@H](O)c3cccnc3)N2)cc1` (some centres unmarked) [Example 258], the EC50 is 11 to 100 nM. On the same count and under the same terms, with `CC(NC(=O)c1ccc(F)cc1)C(=O)Nc1ccc(C[C@@H]2CC[C@H]([C@H](O)c3cccnc3)N2)cc1` (some centres unmarked) [Example 259] the figure was 1 to 10 nM. As to `CC(NC(=O)c1ccccc1)C(=O)Nc1ccc(C[C@@H]2CC[C@H]([C@H](O)c3cccnc3)N2)cc1` (some centres unmarked) [Example 260], the EC50 was less than 1 nM. With `CC(C(=O)Nc1ccc(C[C@@H]2CC[C@H]([C@H](O)c3cccnc3)N2)cc1)N(C)C(=O)c1ccccc1F` (some centres unmarked) [Example 261], the EC50 is 11 to 100 nM.

Still in this assay, the particulars now being: cAMP production, CHO cells expressing human β3 AR; read-out: human Beta-3 agonist functional activity.
Regarding `CCCCCCNC(=O)Nc1ccc(S(=O)(=O)Nc2ccc(C[C@@H]3CC[C@H]([C@H](O)c4cccnc4)N3)cc2)cc1` [Example 239, 4-{[(Hexylamino)carbonyl]amino}-N-[4-({(2S,5R)-5-[(R)-hydroxy(pyridin-3-yl)methyl]pyrrolidin-2-yl}methyl)phenyl]benzenesulfonamide, trifluoroacetic acid salt], the EC50 is less than 10 nM. With `C[C@H](NC(=O)c1ccccc1F)C(=O)Nc1ccc(C[C@@H]2CC[C@H]([C@H](O)c3cccnc3)N2)cc1` [Example 245, 2-Fluoro-N-((1S)-2-{[4-({(2S,5R)-5-[(R)-hydroxy(pyridin-3-yl)methyl]pyrrolidin-2-yl}methyl)phenyl]amino}-1-methyl-2-oxoethyl)benzamide, trifluoracetic acid salt], the EC50 is less than 1 nM.

Turning to `C[C@H](NS(=O)(=O)c1ccc(F)cc1)C(=O)Nc1ccc(C[C@@H]2CC[C@H]([C@H](O)c3cccnc3)N2)cc1` [Example 246, (2S)-2-{[(4-Fluorophenyl)sulfonyl]amino}-N-[4-({(2S,5R)-5-[(R)-hydroxy(pyridin-3-yl)methyl]pyrrolidin-2-yl}methyl)phenyl]propanamide], the EC50 was less than 100 nM.

`O=C(Nc1ccc(C[C@@H]2CC[C@H]([C@H](O)c3cncc(F)c3)N2)cc1)[C@@H]1CCc2scnc21` [Example 262, (4R)—N-[4-({(2S,5R)-5-[(R)-(5-fluoropyridin-3-yl)(hydroxy)methyl]pyrrolidin-2-yl}methyl)phenyl]-5,6-dihydro-4H-cyclopenta[d][1,3]thiazole-4-carboxamide, trifluoroacetic acid salt]: the EC50 is less than 10 nM.

The target of another assay is T2, β3AR (Rattus norvegicus, UniProt P26255).
T2 construct: Following intravenous administration to rats; host or cells: living rats (bladder, in vivo)
T2 sequence (P26255 whole entry): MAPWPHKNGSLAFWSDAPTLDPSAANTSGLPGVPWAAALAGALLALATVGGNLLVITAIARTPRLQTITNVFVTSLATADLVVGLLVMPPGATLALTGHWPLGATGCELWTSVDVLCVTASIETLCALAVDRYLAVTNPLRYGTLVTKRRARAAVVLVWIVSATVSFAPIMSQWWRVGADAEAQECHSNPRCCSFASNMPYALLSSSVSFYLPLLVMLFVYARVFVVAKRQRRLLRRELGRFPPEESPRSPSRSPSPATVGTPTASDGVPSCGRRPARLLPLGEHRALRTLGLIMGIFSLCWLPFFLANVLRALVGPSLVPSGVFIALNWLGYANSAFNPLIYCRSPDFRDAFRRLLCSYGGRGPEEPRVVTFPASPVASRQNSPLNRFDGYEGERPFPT
Assay: not given
The note with it: rats, intravenous administration, cystometric studies; cited from earlier work.
For the compound `C[C@H](Cc1ccc2c(c1)OC(C(=O)[O-])(C(=O)[O-])O2)NC[C@H](O)c1cccc(Cl)c1.[Na+].[Na+]` [CL316243], the bladder capacity result was “increases bladder capacity”.

The assay is the same for the next values; noted with them: rats, intravenous administration; cited from earlier work.
In the case of `C[C@H](Cc1ccc2c(c1)OC(C(=O)[O-])(C(=O)[O-])O2)NC[C@H](O)c1cccc(Cl)c1.[Na+].[Na+]` [CL316243], the bladder pressure entry was “reduces bladder pressure”.
